Test results: patent US12052991B2, “Substituted pyridinyloxybenzenes and salts thereof and use thereof as herbicidal agents” (Bayer Aktiengesellschaft, priority 2018, dated 2024)

Experiments:
Format in all cases: in vivo
[1] = tested on: harmful plants ABUTH, AMARE, ECHCG, LOLRI, MATIN, POAAN, SETVI, STEME, ALOMY, DIGSA, KCHSC and VERPE; assay: Herbicidal pre-emergence action (test C), summary of Tables C1-C12; conditions: application rate of 1280 or 320 g of active ingredient per hectare; summary in words
Procedure, shortened: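 Pre-emergence pot test in sandy loam: WP or EC formulations were sprayed onto the covering soil with 0.5% additive at 600 L/ha water, at 1280 or 320 g/ha. Plants were kept in the greenhouse, and activity was rated visually about 3 weeks later as % versus untreated controls (100% = dead).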

[2] = tested on: harmful plants ABUTH, AMARE, ECHCG, LOLRI, MATIN, POAAN, SETVI, STEME, ALOMY, DIGSA, KCHSC and VERPE; assay: Herbicidal post-emergence action, summary of Tables B1-B12; conditions: application rate of 1280 or 320 g of active ingredient per hectare; summary in words
Procedure, shortened: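 Greenhouse weeds in sandy loam treated post-emergence at the one-leaf stage, 2–3 weeks after sowing, with WP or EC formulations sprayed with 0.5% additive at 600 L/ha water, 1280 or 320 g/ha. Damage rated visually after about 3 weeks versus untreated controls (0% = like control, 100% = dead).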

Setaria viridis (SETVI) = assay: Herbicidal pre-emergence action, test C (Table C4); conditions: visual scoring after about 3 weeks, 100% = plants have died, 0% = like control plants
Procedure, shortened: (§1)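 Pre-emergence soil-surface spray, 1280 or 320 g/ha, WP/EC in water with 0.5% additive, 600 L/ha. Sandy loam pots, doubly sown. Greenhouse ~3 weeks; visual % effect vs untreated (0% = like control, 100% = dead).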

[3] = tested on: Echinochloa crus-galli (ECHCG); assay: Herbicidal pre-emergence action, test C (Table C1); conditions: dosage 1280 g/ha; visual scoring after about 3 weeks; 100% = plants have died, 0% = like control plants
Procedure, shortened: as §1

Veronica persica (VERPE) [4] = assay: Herbicidal pre-emergence action, test C (Table C12); conditions: visual scoring vs untreated controls
Procedure, shortened: as §1

[5] = tested on: Matricaria inodora (MATIN); assay: Herbicidal post-emergence action (Table B7); conditions: rated visually after about 3 weeks, 100% = plants have died, 0% = like control plants
Experimental: Seeds of mono- and dicotyledonous weed plants were placed in plastic pots in sandy loam soil (doubly sown with in each case one species of mono- or dicotyledonous weed plants per pot), covered with soil and cultivated in a greenhouse under controlled growth conditions. 2 to 3 weeks after sowing, the test plants were treated at the one-leaf stage. The compounds of the invention, formulated in the form of wettable powders (WP) or as emulsion concentrates (EC), were applied onto the green parts of the plants as aqueous suspension or emulsion with addition of 0.5% additive at a water application rate of 600 liters per hectare (converted). After the test plants had been kept in the greenhouse under optimum growth conditions for about 3 weeks, the activity of the preparations was rated visually in comparison to untreated controls. For example, 100% activity=the plants have died, 0% activity=like control plants. Tables B1 to B12 below show the effects of selected compounds of the general formula (I) according to Table 1 on various harmful plants and an application rate corresponding to 1280 or 320 g/ha, which were obtained by the experimental procedure mentioned above.

Poa annua (POAAN) [6] = assay: Herbicidal post-emergence action (Table B3); conditions: rated visually after about 3 weeks, 100% = plants have died, 0% = like control plants
Procedure, shortened: (§2)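 Weeds grown from seed in sandy loam in the greenhouse were sprayed at the one-leaf stage, 2 to 3 weeks after sowing, with WP or EC formulations in water plus 0.5% additive at 600 L/ha. Rates corresponded to 1280 or 320 g/ha; damage was rated visually versus untreated controls after about 3 weeks.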

[7] = tested on: Amaranthus retroflexus (AMARE); assay: Herbicidal post-emergence action (Table B6); conditions: visual rating about 3 weeks after treatment, 100% = plants have died, 0% = like control plants
Procedure, shortened: as §2

Stellaria media (STEME) [8] = assay: Herbicidal pre-emergence action, test C (Table C8); conditions: visual scoring after about 3 weeks, 100% = plants have died, 0% = like control plants
Procedure, shortened: as §1

Bassia scoparia (KCHSC) = assay: Herbicidal post-emergence action (Table B11); conditions: visual rating about 3 weeks after treatment, 100% = plants have died, 0% = like control plants
Procedure, shortened: as §2

Veronica persica (VERPE) [9] = assay: Herbicidal post-emergence action (Table B12); conditions: visual rating about 3 weeks after treatment, 100% = plants have died, 0% = like control plants
Procedure, shortened: as §2

[10] = tested on: Digitaria sanguinalis (DIGSA); assay: Herbicidal pre-emergence action, test C (Table C10); conditions: visual scoring after about 3 weeks, 100% = plants have died, 0% = like control plants
Procedure, shortened: as §1

[11] = tested on: Alopecurus myosuroides (ALOMY); assay: Herbicidal post-emergence action (Table B9); conditions: rated visually after about 3 weeks, 100% = plants have died, 0% = like control plants
Procedure, shortened: as §2

[12] = tested on: Digitaria sanguinalis (DIGSA); assay: Herbicidal post-emergence action (Table B10); conditions: visual rating about 3 weeks after treatment, 100% = plants have died, 0% = like control plants
Procedure, shortened: as §2

[13] = tested on: Alopecurus myosuroides (ALOMY); assay: Herbicidal pre-emergence action, test C (Table C9); conditions: visual scoring after about 3 weeks, 100% = plants have died, 0% = like control plants
Procedure, shortened: as §1

Lolium rigidum (LOLRI) = assay: Herbicidal pre-emergence action, test C (Table C2); conditions: dosage 1280 g/ha; visual scoring after about 3 weeks; 100% = plants have died, 0% = like control plants
Procedure, shortened: as §1

Stellaria media (STEME) [14] = assay: Herbicidal post-emergence action (Table B8); conditions: visual rating about 3 weeks after treatment, 100% = plants have died, 0% = like control plants
Procedure, shortened: as §2

[15] = tested on: Amaranthus retroflexus (AMARE); assay: Herbicidal pre-emergence action, test C (Table C6); conditions: visual scoring after about 3 weeks, 100% = plants have died, 0% = like control plants
Procedure, shortened: as §1

[16] = tested on: Abutilon theophrasti (ABUTH); assay: Herbicidal pre-emergence action, test C (Table C5); conditions: dosage 1280 g/ha; visual scoring after about 3 weeks; 100% = plants have died, 0% = like control plants
Procedure, shortened: as §1

[17] = tested on: Abutilon theophrasti (ABUTH); assay: Herbicidal post-emergence action (Table B5); conditions: rated visually after about 3 weeks, 100% = plants have died, 0% = like control plants
Procedure, shortened: as §2

Poa annua (POAAN) [18] = assay: Herbicidal pre-emergence action, test C (Table C3); conditions: visual scoring after about 3 weeks, 100% = plants have died, 0% = like control plants
Procedure, shortened: as §1

[19] = tested on: Matricaria inodora (MATIN); assay: Herbicidal pre-emergence action, test C (Table C7); conditions: visual scoring after about 3 weeks, 100% = plants have died, 0% = like control plants
Procedure, shortened: as §1

| SMILES | herbicidal activity against the harmful plants of Tables C1-C12 in pre-emergence treatment [1] | herbicidal activity against the harmful plants of Tables B1-B12 in post-emergence treatment [2] | Pre-emergence action against Setaria viridis (SETVI) (Setaria viridis (SETVI); dosage 1280 g/ha) [%] | Pre-emergence action against Veronica persica (VERPE) (Veronica persica (VERPE) [4]; dosage 1280 g/ha) [%] | Post-emergence action against Matricaria inodora (MATIN) ([5]; 1280 g/ha) [%] | Post-emergence action against Poa annua (POAAN) (Poa annua (POAAN) [6]; 320 g/ha) [%] | Post-emergence action against Poa annua (POAAN) (Poa annua (POAAN) [6]; 1280 g/ha) [%] | Post-emergence action against Amaranthus retroflexus (AMARE) ([7]; dosage 320 g/ha) [%] | Post-emergence action against Amaranthus retroflexus (AMARE) ([7]; dosage 1280 g/ha) [%] | Pre-emergence action against Stellaria media (STEME) (Stellaria media (STEME) [8]; dosage 320 g/ha) [%] | Pre-emergence action against Stellaria media (STEME) (Stellaria media (STEME) [8]; dosage 1280 g/ha) [%] | Post-emergence action against Veronica persica (VERPE) (Veronica persica (VERPE) [9]; dosage 320 g/ha) [%] | Post-emergence action against Veronica persica (VERPE) (Veronica persica (VERPE) [9]; dosage 1280 g/ha) [%] | Pre-emergence action against Digitaria sanguinalis (DIGSA) ([10]; dosage 1280 g/ha) [%] | Pre-emergence action against Alopecurus myosuroides (ALOMY) ([13]; dosage 1280 g/ha) [%] | Post-emergence action against Stellaria media (STEME) (Stellaria media (STEME) [14]; dosage 1280 g/ha) [%] | Pre-emergence action against Amaranthus retroflexus (AMARE) ([15]; dosage 320 g/ha) [%] | Pre-emergence action against Amaranthus retroflexus (AMARE) ([15]; dosage 1280 g/ha) [%] | Post-emergence action against Abutilon theophrasti (ABUTH) ([17]; 320 g/ha) [%] | Post-emergence action against Abutilon theophrasti (ABUTH) ([17]; 1280 g/ha) [%] | further results |
| --- | --- | --- | --- | --- | --- | --- | --- | --- | --- | --- | --- | --- | --- | --- | --- | --- | --- | --- | --- | --- | --- |
| CCc1cccc(Oc2ccc(Cl)cn2)c1-c1cc(C(F)F)no1 [Example 1-59] | very good herbicidal activity | very good herbicidal activity | 100 | 100 | 100 | 100 | 100 | 90 | 100 | 100 | 100 | 100 | 100 | 100 | 100 | 100 | 100 | 100 | 100 | 100 | Pre-emergence action against Setaria viridis (SETVI) (Setaria viridis (SETVI); dosage 320 g/ha): 100%; Pre-emergence action against Echinochloa crus-galli (ECHCG) [3]: 90%; Pre-emergence action against Veronica persica (VERPE) (Veronica persica (VERPE) [4]; dosage 320 g/ha): 100%; Post-emergence action against Bassia scoparia (KCHSC) (Bassia scoparia (KCHSC); dosage 1280 g/ha): 90%; Pre-emergence action against Digitaria sanguinalis (DIGSA) ([10]; dosage 320 g/ha): 100%; Post-emergence action against Alopecurus myosuroides (ALOMY) ([11]; 320 g/ha): 100%; Post-emergence action against Alopecurus myosuroides (ALOMY) ([11]; 1280 g/ha): 100%; Post-emergence action against Digitaria sanguinalis (DIGSA) ([12]; dosage 320 g/ha): 100%; Post-emergence action against Digitaria sanguinalis (DIGSA) ([12]; dosage 1280 g/ha): 100%; Pre-emergence action against Alopecurus myosuroides (ALOMY) ([13]; dosage 320 g/ha): 100%; Pre-emergence action against Lolium rigidum (LOLRI) (Lolium rigidum (LOLRI)): 100%; Post-emergence action against Stellaria media (STEME) (Stellaria media (STEME) [14]; dosage 320 g/ha): 100%; Pre-emergence action against Abutilon theophrasti (ABUTH) [16]: 90% |
| Fc1cc(Cl)cnc1Oc1ccccc1-c1ccc(Cl)cn1 [Example 1-74] | very good herbicidal activity | very good herbicidal activity | 100 | 90 | 100 | 100 | 100 | 100 | 100 | – | – | 100 | 100 | 100 | 100 | 90 | 90 | 90 | 90 | 100 | Post-emergence action against Matricaria inodora (MATIN) ([5]; 320 g/ha): 100%; Pre-emergence action against Digitaria sanguinalis (DIGSA) ([10]; dosage 320 g/ha): 90%; Pre-emergence action against Poa annua (POAAN) (Poa annua (POAAN) [18]; dosage 320 g/ha): 100%; Pre-emergence action against Poa annua (POAAN) (Poa annua (POAAN) [18]; dosage 1280 g/ha): 100% |
| Cc1cc(C)c(-c2cc(C(F)F)no2)c(Oc2ncc(Cl)cc2F)c1 [Example 1-79] | very good herbicidal activity | very good herbicidal activity | 100 | 100 | 90 | 100 | 100 | 100 | 100 | 100 | 100 | 100 | 100 | 100 | 90 | 100 | 100 | 100 | 100 | 100 | Post-emergence action against Bassia scoparia (KCHSC) (Bassia scoparia (KCHSC); dosage 320 g/ha): 90%; Post-emergence action against Bassia scoparia (KCHSC) (Bassia scoparia (KCHSC); dosage 1280 g/ha): 90%; Post-emergence action against Alopecurus myosuroides (ALOMY) ([11]; 1280 g/ha): 90%; Post-emergence action against Digitaria sanguinalis (DIGSA) ([12]; dosage 1280 g/ha): 100%; Post-emergence action against Stellaria media (STEME) (Stellaria media (STEME) [14]; dosage 320 g/ha): 100%; Pre-emergence action against Abutilon theophrasti (ABUTH) [16]: 90%; Pre-emergence action against Poa annua (POAAN) (Poa annua (POAAN) [18]; dosage 320 g/ha): 90%; Pre-emergence action against Poa annua (POAAN) (Poa annua (POAAN) [18]; dosage 1280 g/ha): 100%; Pre-emergence action against Matricaria inodora (MATIN) ([19]; dosage 320 g/ha): 100%; Pre-emergence action against Matricaria inodora (MATIN) ([19]; dosage 1280 g/ha): 100% |
